Laboratory results taken from patent publication US6727253B2, “Treatment of accidental extravasation of anthracyclines” (Antianthra APS, priority 1999, dated 2004).
Read-outs that look alike come from different tables or passages of the source.

Columns and labels:
[1] = test system: SC idarubicin induced wounds in mice; conditions: for AUC / DW / FW / TTW: Table A
Method: The mice were euthanized after healing of all wounds.
[…] Half of the groups served a saline controls, whereas in the other half of the groups ICRF-187 250 mg/kg was administered IP at t=0.

[2] = test system: wound after doxorubicin SC in swine; test: Pilot study on swine, doxorubicin SC; type: in vivo; conditions: 3 mg doxorubicin SC, ICRF-187 25 mg/kg IV at t=0
Method: (§1) A danish porker weighting approximately 30 kg was used. The animals were fully anesthesized and artificially ventilated during SC injection of 1 ml of anthracycline.

[3] = test system: wound after daunorubicin SC in swine; test: Pilot study on swine, daunorubicin SC; type: in vivo; conditions: 1 ml daunorubicin SC
Method: as §1

[4] = test system: extravasation of doxorubicin in a patient; test: Clinical results in a patient with doxorubicin extravasation; type: in vivo
[5] = Example 9, idarubicin 0.05 mg/kg sc + ICRF-187 250 mg/kg IP at t=0
[6] = Example 9, idarubicin 0.25 mg/kg sc + ICRF-187 250 mg/kg IP at t=0
[7] = Example 9, idarubicin 0.75 mg/kg sc + ICRF-187 250 mg/kg IP at t=0
[8] = idarubicin 0.05 mg/kg SC + DEX 250 mg/kg IP at t=0
[9] = idarubicin 0.25 mg/kg SC + DEX 250 mg/kg IP at t=0
[10] = idarubicin 0.75 mg/kg SC + DEX 250 mg/kg IP at t=0, pooled data
[11] = idarubicin 1.50 mg/kg SC + DEX 250 mg/kg IP at t=0

Compound: C[C@@H](CN1CC(=O)NC(=O)C1)N1CC(=O)NC(=O)C1 [ICRF-187, (+)-1,2-bis(3,5-dioxopiperazinyl-1-yl)propane]
- Mean AUC [1, 5]: 4 mm^2 × days
- Mean DWw ± SEM [1, 5]: 13.0 ± 0.0 days
- Mean TTWw ± SEM [1, 5]: 12.0 ± 0.0 days
- Nw/NG [1, 5]: 11%
- Mean AUC [1, 6]: 38 mm^2 × days
- Mean DWw ± SEM [1, 6]: 20.0 ± 0.0 days
- Mean TTWw ± SEM [1, 6]: 6.0 ± 0.0 days
- Nw/NG [1, 6]: 11%
- Mean AUC [1, 7]: 44 mm^2 × days
- Mean DWw ± SEM [1, 7]: 17.5 ± 0.5 days
- Mean TTWw ± SEM [1, 7]: 8.0 ± 0.0 days
- Nw/NG [1, 7]: 22%
- reduction in the AUC ([1]; Example 9, idarubicin 0.75 mg/kg sc, ICRF-187 250 mg/kg IP vs saline, p<0.05): 90%
- AUC [1, 8]: 4 (± 4) mm^2×days
- DW [1, 8]: 13.0 (± 0.0) days
- FW [1, 8]: 11%
- TTW [1, 8]: 12.0 (± 0.0) days
- AUC [1, 9]: 38 (± 38) mm^2×days
- DW [1, 9]: 20.0 (± 0.0) days
- FW [1, 9]: 11%
- TTW [1, 9]: 6.0 (± 0.0) days
- AUC [1, 10]: 42 (± 19) mm^2×days
- DW [1, 10]: 15.6 (± 2.7) days
- FW [1, 10]: 28%
- TTW [1, 10]: 10.2 (± .5) days
- AUC [1, 11]: 183 (± 54) mm^2×days
- DW [1, 11]: 17.8 (± 0.9) days
- FW [1, 11]: 75%
- TTW [1, 11]: 7.7 (± 0.2) days
- deaths due to the treatment ([1]; mouse, in vivo): no deaths due to the treatment
- ulcer development [2]: did not develope an ulcer
- wound appearance ([3]; ICRF-187 25 mg/kg IV daily for three days): no wound appeared
- wound appearance ([3]; ICRF-187 50 mg/kg IV at t=0): a small wound appeared
- ulcer or skin-necrosis ([4]; 149 mg doxorubicin infused subcutaneously, ICRF-187 day 1-3, 30 days evaluation): No ulcer or signs of skin-necrosis developed
- side effects from the treatment ([4]; ICRF-187 1000, 1000, 500 mg/m^2 on day 1, 2, 3, initiated 2 h 30 m after extravasation): no side effects
